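How tested: cells in 96-well plates exposed to compound for 48 hours at five concentrations. TGI: total growth inhibition.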
These molecules were tested on HOP-62 NSCLC (assay: NCI anticancer screen, dose series, 48 h).

Row | Compound | TGI
1 | Nc1nc(Cl)c(N)c(NC23CC4CC(CC(C4)C2)C3)n1 | 4.3 µM

These molecules were tested on HOP-92 NSCLC (assay: NCI anticancer screen, dose series, 48 h).

Row | Compound | TGI
2 | C=CCNC1=C2C[C@@H](C)C[C@@H](OC)[C@H](OC(=O)CCCCN)[C@H](C)/C=C(\C)[C@@H](OC(N)=O)[C@H](OC)/C=C\C=C(/C)C(=O)NC(=CC1=O)C2=O | 35.7 µM
3 | C[C@@H]1C[C@H]2[C@@H]3CCC4=CC(=O)C=C[C@]4(C)[C@@]3(Cl)[C@@H](Cl)C[C@]2(C)[C@@]1(O)C(=O)COP(=O)(O)O | > 100 µM
4 | O=Cc1cc2c(cc1-c1c(C=O)ccc3c1OCO3)OCO2 | > 10 µM
5 | COC(=O)Cc1cc(O)c(C/C=C(\C)CC/C=C(\C)C(O)C(=O)C=C(C)C)cc1O (stereo not drawn) | 47.7 µM
6 | COc1ccc(/C=C(/C(=O)c2ccc(Cl)cc2)N2C=CC=CC2=C(C#N)C#N)cc1OC | 13.4 µM
7 | Nc1nc(Cl)c(N)c(NC23CC4CC(CC(C4)C2)C3)n1 | > 19.9 µM

These molecules were tested on HS 578T breast (assay: NCI anticancer screen, dose series, 48 h).

Row | Compound | TGI
8 | CCOC(=O)C1(Cc2ccc3c(c2)CCC3)Cc2cc3c(cc2C1)CCC3 | > 100 µM
9 | C=CCNC1=C2C[C@@H](C)C[C@@H](OC)[C@H](OC(=O)CCCCN)[C@H](C)/C=C(\C)[C@@H](OC(N)=O)[C@H](OC)/C=C\C=C(/C)C(=O)NC(=CC1=O)C2=O | 58.4 µM
10 | C[C@@H]1C[C@H]2[C@@H]3CCC4=CC(=O)C=C[C@]4(C)[C@@]3(Cl)[C@@H](Cl)C[C@]2(C)[C@@]1(O)C(=O)COP(=O)(O)O | > 100 µM
11 | O=Cc1cc2c(cc1-c1c(C=O)ccc3c1OCO3)OCO2 | > 10 µM
12 | COC(=O)Cc1cc(O)c(C/C=C(\C)CC/C=C(\C)C(O)C(=O)C=C(C)C)cc1O (stereo not drawn) | > 100 µM
13 | COc1ccc(/C=C(/C(=O)c2ccc(Cl)cc2)N2C=CC=CC2=C(C#N)C#N)cc1OC | 26.3 µM
14 | Nc1nc(Cl)c(N)c(NC23CC4CC(CC(C4)C2)C3)n1 | > 100 µM

Each molecule was assayed on HT29 colon (assay: NCI anticancer screen, dose series, 48 h).

Row | Compound | TGI
15 | CCOC(=O)C1(Cc2ccc3c(c2)CCC3)Cc2cc3c(cc2C1)CCC3 | 37.9 µM
16 | C=CCNC1=C2C[C@@H](C)C[C@@H](OC)[C@H](OC(=O)CCCCN)[C@H](C)/C=C(\C)[C@@H](OC(N)=O)[C@H](OC)/C=C\C=C(/C)C(=O)NC(=CC1=O)C2=O | 14.8 µM
17 | C[C@@H]1C[C@H]2[C@@H]3CCC4=CC(=O)C=C[C@]4(C)[C@@]3(Cl)[C@@H](Cl)C[C@]2(C)[C@@]1(O)C(=O)COP(=O)(O)O | > 100 µM
18 | O=Cc1cc2c(cc1-c1c(C=O)ccc3c1OCO3)OCO2 | > 10 µM
19 | COC(=O)Cc1cc(O)c(C/C=C(\C)CC/C=C(\C)C(O)C(=O)C=C(C)C)cc1O (stereo not drawn) | 61.3 µM
20 | COc1ccc(/C=C(/C(=O)c2ccc(Cl)cc2)N2C=CC=CC2=C(C#N)C#N)cc1OC | 13.1 µM
21 | Nc1nc(Cl)c(N)c(NC23CC4CC(CC(C4)C2)C3)n1 | 3.42 µM

Each molecule was assayed on IGROV1 ovarian (assay: NCI anticancer screen, dose series, 48 h).

Row | Compound | TGI
22 | CCOC(=O)C1(Cc2ccc3c(c2)CCC3)Cc2cc3c(cc2C1)CCC3 | > 100 µM
23 | C=CCNC1=C2C[C@@H](C)C[C@@H](OC)[C@H](OC(=O)CCCCN)[C@H](C)/C=C(\C)[C@@H](OC(N)=O)[C@H](OC)/C=C\C=C(/C)C(=O)NC(=CC1=O)C2=O | 28.6 µM
24 | C[C@@H]1C[C@H]2[C@@H]3CCC4=CC(=O)C=C[C@]4(C)[C@@]3(Cl)[C@@H](Cl)C[C@]2(C)[C@@]1(O)C(=O)COP(=O)(O)O | > 100 µM
25 | O=Cc1cc2c(cc1-c1c(C=O)ccc3c1OCO3)OCO2 | > 10 µM
26 | COC(=O)Cc1cc(O)c(C/C=C(\C)CC/C=C(\C)C(O)C(=O)C=C(C)C)cc1O (stereo not drawn) | 63 µM
27 | COc1ccc(/C=C(/C(=O)c2ccc(Cl)cc2)N2C=CC=CC2=C(C#N)C#N)cc1OC | 14.9 µM
28 | Nc1nc(Cl)c(N)c(NC23CC4CC(CC(C4)C2)C3)n1 | > 100 µM

What follows are molecules tested on K-562 leukemia (assay: NCI anticancer screen, dose series, 48 h).

Row | Compound | TGI
29 | CCOC(=O)C1(Cc2ccc3c(c2)CCC3)Cc2cc3c(cc2C1)CCC3 | > 100 µM
30 | C=CCNC1=C2C[C@@H](C)C[C@@H](OC)[C@H](OC(=O)CCCCN)[C@H](C)/C=C(\C)[C@@H](OC(N)=O)[C@H](OC)/C=C\C=C(/C)C(=O)NC(=CC1=O)C2=O | > 100 µM
31 | C[C@@H]1C[C@H]2[C@@H]3CCC4=CC(=O)C=C[C@]4(C)[C@@]3(Cl)[C@@H](Cl)C[C@]2(C)[C@@]1(O)C(=O)COP(=O)(O)O | > 100 µM
32 | O=Cc1cc2c(cc1-c1c(C=O)ccc3c1OCO3)OCO2 | > 10 µM
33 | COC(=O)Cc1cc(O)c(C/C=C(\C)CC/C=C(\C)C(O)C(=O)C=C(C)C)cc1O (stereo not drawn) | 39.1 µM
34 | Nc1nc(Cl)c(N)c(NC23CC4CC(CC(C4)C2)C3)n1 | 6.87 µM

Each molecule was assayed on KM12 colon (assay: NCI anticancer screen, dose series, 48 h).

Row | Compound | TGI
35 | CCOC(=O)C1(Cc2ccc3c(c2)CCC3)Cc2cc3c(cc2C1)CCC3 | > 100 µM
36 | C=CCNC1=C2C[C@@H](C)C[C@@H](OC)[C@H](OC(=O)CCCCN)[C@H](C)/C=C(\C)[C@@H](OC(N)=O)[C@H](OC)/C=C\C=C(/C)C(=O)NC(=CC1=O)C2=O | 18 µM
37 | C[C@@H]1C[C@H]2[C@@H]3CCC4=CC(=O)C=C[C@]4(C)[C@@]3(Cl)[C@@H](Cl)C[C@]2(C)[C@@]1(O)C(=O)COP(=O)(O)O | > 100 µM
38 | O=Cc1cc2c(cc1-c1c(C=O)ccc3c1OCO3)OCO2 | > 10 µM
39 | COC(=O)Cc1cc(O)c(C/C=C(\C)CC/C=C(\C)C(O)C(=O)C=C(C)C)cc1O (stereo not drawn) | 43.2 µM
40 | COc1ccc(/C=C(/C(=O)c2ccc(Cl)cc2)N2C=CC=CC2=C(C#N)C#N)cc1OC | 42.1 µM
41 | Nc1nc(Cl)c(N)c(NC23CC4CC(CC(C4)C2)C3)n1 | 3.67 µM

These molecules were tested on LOX IMVI melanoma (assay: NCI anticancer screen, dose series, 48 h).

Row | Compound | TGI
42 | CCOC(=O)C1(Cc2ccc3c(c2)CCC3)Cc2cc3c(cc2C1)CCC3 | 82.4 µM
43 | C=CCNC1=C2C[C@@H](C)C[C@@H](OC)[C@H](OC(=O)CCCCN)[C@H](C)/C=C(\C)[C@@H](OC(N)=O)[C@H](OC)/C=C\C=C(/C)C(=O)NC(=CC1=O)C2=O | 27.5 µM
44 | C[C@@H]1C[C@H]2[C@@H]3CCC4=CC(=O)C=C[C@]4(C)[C@@]3(Cl)[C@@H](Cl)C[C@]2(C)[C@@]1(O)C(=O)COP(=O)(O)O | > 100 µM
45 | O=Cc1cc2c(cc1-c1c(C=O)ccc3c1OCO3)OCO2 | > 10 µM
46 | COc1ccc(/C=C(/C(=O)c2ccc(Cl)cc2)N2C=CC=CC2=C(C#N)C#N)cc1OC | 8.3 µM
47 | Nc1nc(Cl)c(N)c(NC23CC4CC(CC(C4)C2)C3)n1 | > 100 µM

Each molecule was assayed on M14 melanoma (assay: NCI anticancer screen, dose series, 48 h).

Row | Compound | TGI
48 | CCOC(=O)C1(Cc2ccc3c(c2)CCC3)Cc2cc3c(cc2C1)CCC3 | 55.9 µM
